From patent US9969715B2, “Compounds useful for treating cancer” (ABIVAX, priority 2012, dated 2018)

Columns and labels:
[1] = system: MDA-MB231-luc-D3H2LN cells; experiment: Invasion of MDA-MB231-D3H2LN cells into collagen (example 15 = procedure 2, 48 h drug pre-incubation); format: cell-based; conditions: concentration giving 50% of the anti-invasive effect of 10 μM Y-27632; 48 h pre-incubation, 24 h with 5% FBS; read-out: MDA: Inhib. of invasion: 0.5 × eff. of 10 μM Y-27632 at (μM) av
Description: Effect of Drug Compounds on Invasion of MDA-MB231-D3H2LN Cells into Collagen
Preparation of cells at the bottom of a collagen gel: Cells are suspended in a liquid collagen solution (4° C.), distributed into BSA-coated wells, and then collected at the bottom of the wells by centrifugation. The collagen is then solidified by incubation at 37° C. The BSA coating improves the adhesion of the collagen gel.
Pre-treatment with the compounds to be tested: Concentrated drug solutions are then added on top of the collagen, and cells are pre-incubated for 48 h with the drugs at low serum conditions (0.025% FBS).
Stimulation of invasion: Medium with 5% FBS is then added in order to stimulate invasion of the cells into the collagen gel.
(§1) Viability assay, fixation and staining: Following another 24 h incubation, an MTS assay is performed directly on the cells in the collagen. Then, cells are fixed and nuclei are stained.
Analysis: Finally, plates are analyzed using an automated microscope. Fluorescent beads that have been included into the BSA coating serve to detect the bottom of the wells. Pictures of the stained nuclei are taken at the same level (0 μm) as well as 25 μm and 50 μm above.
Negative control: No drug (just DMSO at equivalent concentration). Positive control: 10 μM Y-27632. To avoid edge effects, cells are added only to the 60 central wells B2-G11; lines A and H receive only collagen without cells (blank for the MTS assay) columns 1 and 12 remain free. Each drug is tested at least in triplicate. The positive and negative controls should be tested in several triplicates at different positions on each plate. Typical plate map (−=negative control, +=positive control, 1-12=12 different test conditions, i. e. different drug compounds or concentrations):
Preparation of 4× concentrated drug solutions in MEM+0.1% FBS+2% Lutrol E-400+0.8% DMSO: Mix each 620 μl MEM+0.1% FBS+2% Lutrol E-400 with each 4 μl DMSO+each 1 μl of the 50 mM compound stock solutions (yielding […] and 0.8% DMSO). If the desired final compound concentration is <5 μM, then further dilute in MEM+0.1% FBS+0.8% DMSO. Negative control: MEM+0.1% FBS+2% Lutrol E-400+0.8% DMSO without any drug. Preparation of the positive control: Mix 4.5 ml MEM+0.1% FBS+2% Lutrol E-400+[…] with 36 μl 5 mM Y-27632 (freshly thawed aliquot) (yielding 40 μM).
add each 33 μl/well of the 4× concentrated drug solutions in MEM+0.1% FBS+2% Lutrol E-400+0.8% DMSO to the corresponding wells (yields 1× concentrated drugs in MEM+0.025% FBS+0.5% Lutrol E-400+0.2% DMSO final)
incubate 48 h at 37° C./5% CO2
incubate 24 h at 37° C./5% CO2
for each well, calculate the mean invasion distance of the counted cells: (25 μm×number of cells at 25 μm+50 μm×number cells at 50 μm)/sum of cells at 0, 25 and 50 μm
invalidate any replicate with a CV≥50% (compound to be re-tested, or assay to be repeated if CV≥50% for the untreated negative control or the compound Y-27632-treated positive control). Y27632 is a selective inhibitor of the Rho-associated protein kinase p160ROCK of the following formula
validate the assay only if the mean invasion distance of the cells treated with 10 μM Y-27632 (positive control) is decreased by ≥40% as compared to the untreated negative control
(§2) Final analysis: Determine the concentration at which a given compound has 50% of the anti-invasive effect of the positive control (10 μM Y-27632). Determine the toxicity (=loss of viability) of the compound under these conditions.
Here, invasion (into collagen) is the concentration of the compound necessary to reach 50% of the inhibition effect compared to 10 μM Y-27632.
Standard operating procedure 2 is exactly the same as the procedure as described in example 15.

[2] = system: MDA-MB231-luc-D3H2LN cells; experiment: Toxicity assay under normal cell culture conditions (MTS), MDA cells; format: cell-based, human; conditions: MDA-MB231-luc-D3H2LN cells, MEM+10% FBS, 72 h incubation, MTS
Description: (§3) In order to detect possible toxic effects, all compounds are tested in parallel in a viability assay. The viability assay is performed in parallel on serum-starved cells (as in the invasion assay) vs. cells under normal culture conditions (10% FBS).
(§4) Toxicity Assays (Under Normal Cell Culture Conditions):
(§5) Compounds were prepared as for the invasion assay, and then added to either MDA-MB231-luc-D3H2LN cells (2000/well) under normal culture conditions (MEM+10% FBS), or human PBMC (75000/well, in RPMI+10% FBS+IL-2) in standard 96-well tissue culture plates. After 72 h incubation, a standard MTS assay was performed according to the manufacturer's instructions (Promega Ref. G3581). Compounds were tested at various concentrations (concentration-response curves) in order to determine the concentrations at which 50% toxicity is obtained.

[3] = system: human PBMC; experiment: Toxicity assay under normal cell culture conditions (MTS), PBMC; format: cell-based; conditions: human PBMC, RPMI+10% FBS+IL-2, 72 h incubation, MTS
Description: as §4, §5

[4] = system: MDA-MB231-luc-D3H2LN cells; experiment: Viability (MTS) assay on the cells in collagen under invasion assay conditions; format: cell-based, human; conditions: loss of viability at the concentration giving 0.5 × effect of 10 μM Y-27632, invasion assay conditions
Description: as §1, §3
Viability Assay: MTS Assay:
add each 33 μl/well of the MTS reagent, incubate 3-4 h at 37° C./5% CO2
read absorbance at 490 nm (proportional to the viability)
calculate the background-corrected signals by subtracting the means of the background signals in absence of cells from the corresponding signals in presence of cells
normalize the background-corrected signals with respect to the mean signal of the negative controls (no drug) (viabilities are thus expressed in “% of control”)
as §2

SMILES | IC50 [1] | MDA tox: 50% tox. at (μM) av [2] | PBMC tox.: 50% tox. at (μM) av [3] | (+ MDA tox. under these cond.) % tox [4]
CCN(CC)CCCNC(=O)c1ccc(Nc2cccc(C(=O)Nc3ccncc3)c2)cc1 [Compound 2, 3-((4-((3-(diethylamino)propyl)carbamoyl)phenyl)amino)-N-(pyridin-4-yl)benzamide] | > 5 µM | 103 µM | 156 µM | 
CN1CCN(CCCNC(=O)c2cccc(Nc3cccc(C(=O)Nc4ccncc4)c3)c2)CC1 [Compound 6, N-(3-(4-methylpiperazin-1-yl)propyl)-3-((3-(pyridin-4-ylcarbamoyl)phenyl)amino)benzamide] | 0.16 µM | 58 µM | 100 µM | <10%
O=C(NCCCN1CCCCC1)c1cccc(Nc2cccc(C(=O)Nc3ccncc3)c2)c1 [Compound 7, N-(3-(piperidin-1-yl)propyl)-3-((3-(pyridin-4-ylcarbamoyl)phenyl)amino)benzamide] | 0.11 µM | 25 µM | 38 µM | <10%
CN1CCN(C(=O)c2cccc(Nc3cccc(C(=O)Nc4ccncc4)c3)c2)CC1 [Compound 8, 3-((3-(4-methylpiperazine-1-carbonyl)phenyl)amino)-N-(pyridin-4-yl)benzamide] | 7.5 µM | >>100 μM |  | 
O=C(Nc1ccncc1)c1cccc(Nc2cccc(S(=O)(=O)NCCN3CCCCC3)c2)c1 [Compound 10, 3-((3-(N-(2-(piperidin-1-yl)ethyl)sulfamoyl)phenyl)amino)-N-(pyridin-4-yl)benzamide] | 0.53 µM | 45 µM | 29 µM | <10%
CCN(CC)CCCNC(=O)c1cccc(Nc2ccc(C(=O)Nc3ccncc3)cc2)c1 [Compound 13, N-(3-(diethylamino)propyl)-3-((4-(pyridin-4-ylcarbamoyl)phenyl)amino)benzamide] | > 5 µM | 93 µM | 34 µM | 
O=C(NCCCN1CCOCC1)c1cccc(Nc2ccc(C(=O)Nc3ccncc3)cc2)c1 [Compound 14, N-(3-morpholinopropyl)-3-((4-(pyridin-4-ylcarbamoyl)phenyl)amino)benzamide] | > 2.5 µM | 70 µM | 20 µM | 
O=C(Nc1ccncc1)c1ccc(Nc2cccc(S(=O)(=O)NCCCN3CCOCC3)c2)cc1 [Compound 15, 4-((3-(N-(3-morpholinopropyl)sulfamoyl)phenyl)amino)-N-(pyridin-4-yl)benzamide] | 5 µM | >>44 μM | 36 µM | <10%
O=C(Nc1ccncc1)c1ccc(Nc2cccc(S(=O)(=O)NCCN3CCCC3)c2)cc1 [Compound 16, N-(pyridin-4-yl)-4-((3-(N-(2-(pyrrolidin-1-yl)ethyl)sulfamoyl)phenyl)amino)benzamide] | ≥ 4.6 µM | 78 µM | 10 µM | 
CCN(CC)CCCNC(=O)c1cccc(Nc2cccc(C(=O)N(C)c3ccncc3)c2)c1 [Compound 17, 3-((3-((3-(diethylamino)propyl)carbamoyl)phenyl)amino)-N-methyl-N-(pyridin-4-yl)benzamide] | 3 µM | >100 µM | >100 µM | <10%
CN(C(=O)c1cccc(Nc2cccc(C(=O)NCCCN3CCCC3)c2)c1)c1ccncc1 [Compound 18, N-methyl-N-(pyridin-4-yl)-3-((3-((3-(pyrrolidin-1-yl)propyl)carbamoyl)phenyl)amino)benzamide] | 3.45 µM | >100 µM | >100 µM | <10%
CCN(CC)CCCNS(=O)(=O)c1cccc(Nc2cccc(C(=O)N(C)c3ccncc3)c2)c1 [Compound 19, 3-((3-(N-(3-(diethylamino)propyl)sulfamoyl)phenyl)amino)-N-methyl-N-(pyridin-4-yl)benzamide] | > 5 µM | >100 µM | >100 µM | 
CN(C(=O)c1cccc(Nc2cccc(S(=O)(=O)NCCCN3CCOCC3)c2)c1)c1ccncc1 [Compound 23, N-methyl-3-((3-(N-(3-morpholinopropyl)sulfamoyl)phenyl)amino)-N-(pyridin-4-yl)benzamide] | > 5 µM | >100 µM | >70 µM | 
CCN(CC)CCCNC(=O)c1cccc(Nc2ccc(C(=O)Nc3ccncc3)cc2)n1 [Compound 36, N-(3-(diethylamino)propyl)-6-((4-(pyridin-4-ylcarbamoyl)phenyl)amino)picolinamide] | > 5 µM | >>100 μM | 58 µM | 
CCN(CC)CCCNS(=O)(=O)c1cccc(Nc2cc(C(=O)Nc3ccncc3)ccn2)c1 [Compound 46, 2-((3-(N-(3-(diethylamino)propyl)sulfamoyl)phenyl)amino)-N-(pyridin-4-yl)isonicotinamide] | 7.5 µM | >100 µM | >100 µM | 
